Measured values from patent publication US20230055953A1, “AGENT FOR ADJUVANT THERAPY” (TAIHO PHARMACEUTICAL CO., LTD., priority 2019, published 2023).

Tested on: B16F10.A24/SART2^93-101 cells
Assay: Lung metastatic model: intravenous transplantation of B16F10.A24/SART2^93-101 cells, count of metastatic pulmonary nodules
Format: in vivo, mouse
Conditions: B2m^tm2(HLA-A24/H-2Db/B2M)Tai mice; emulsion with Montanide ISA 51 VG subcutaneously on Day 1, Day 8, Day 15; lungs resected Day 28; compared with control group, p=0.0014, Student's t-test
Method: Eleven-week-old B2m^tm2(HLA-A24/H-2Db/B2M)Tai mice (J. Immunol.: 198, 516-527, 2017) were randomly divided into groups each consisting of 10 mice. The day of grouping was designated Day 0.
The B16F10.A24/SART2^93-101 cells (PLoS One: 13, e0199249, 2018) were cultured using the Dulbecco's Modified Eagle's Medium (Sigma-Aldrich) containing 10% FBS. The B16F10.A24/SART2^93-101 cells were subjected to subculture in an incubator at 37° C. in the presence of 5% CO2 two times a week at a ratio of 1:25 to 1:40.
On the day of grouping of mice (Day 0), the B16F10.A24/SART2^93-101 cell suspension prepared using D-PBS (FUJIFILM Wako Pure Chemical Corporation) was transplanted into the tail veins of mice at 1×10^6 cells/0.1 ml.
The mouse models are found to undergo recurrence of tumor cells transplanted into the blood in the lung. Accordingly, such mouse models can be regarded as simulating the recurrence mechanism caused by cancer metastasis in humans. By verifying the effects in such models, accordingly, the inhibitory effects on tumor metastasis and recurrence can be verified. […]
The lungs were resected 28 days after transplantation of the B16F10.A24/SART2^93-101 cells (Day 28), and the number of metastatic pulmonary nodules was visually counted.

Substance: PEP5-RR-PEP9-RR-PEP6-RR-PEP4 (DYSARWNEIRRQIRPIFSNRRRVYDYNCHVDLRRLLQAEAPRL) [TPV06]
- number of metastatic pulmonary nodules: significantly reduced
